Earlier results on two molecules are cited in US12048727B2, “Synergistic formulation against acne and a process for the preparation thereof” (COUNCIL OF SCIENTIFIC & INDUSTRIAL RESEARCH, priority 2019, dated 2024).

For this data set, the system named is P. acnes strains. The settings on record: Indian population.

For `CC[C@H]1OC(=O)[C@H](C)[C@@H](O[C@H]2C[C@@](C)(OC)[C@@H](O)[C@H](C)O2)[C@H](C)[C@@H](O[C@@H]2O[C@H](C)C[C@H](N(C)C)[C@H]2O)[C@](C)(O)C[C@@H](C)CN(C)[C@H](C)[C@@H](O)[C@]1(C)O` [azithromycin], the resistance of antibiotics is given as 100%.

For the molecule `CC[C@H]1OC(=O)[C@H](C)[C@@H](O[C@H]2C[C@@](C)(OC)[C@@H](O)[C@H](C)O2)[C@H](C)[C@@H](O[C@@H]2O[C@H](C)C[C@H](N(C)C)[C@H]2O)[C@](C)(O)C[C@@H](C)C(=O)[C@H](C)[C@@H](O)[C@]1(C)O` [erythromycin], the resistance of antibiotics is on record as 98%.
